Results published in patent publication US20060106026A1, “4-(4-methylpiperazin-1-ylmethyl)-n-[4-pyridin-3-yl)pyrimidin-2-ylamino)phenyl]-benzamide for treating anaplastic thyroid cancer” (priority 2002, published 2006).
Where two headings read alike, the source gives them in different places.

Tests used:
[1] = system: FRO; assay: Cell growth assay, experiment 1 (cell count kit 48 h; growth curve 5 days); settings: for cell number quantified with a cell count kit (Wako), mean: 48 hour-treatment, no SALT I: 1.677
[2] = system: cell cycle regulatory proteins (p21cip1, p27kip1, cyclin A, B1, CDC2, cyclin D3)
From the text: After transfer onto nitrocellulose membranes (Pall Corporation, Ann Arbor, Mich., USA), blots were probed with the appropriate antibodies. β-actin was used as a loading control. The antibodies used were: anti-p21waf1 (Ab-1, Calbiochem, Darmstardt, Germany), anti-p27-8, Santa Cruz Biotechnology, Santa Cruz, Calif., USA), anti-cyclin A (C88020, BD Biosciences, Boston, Mass., USA), anti-cyclin B1 (C23420, BD Biosciences), anti-CDK1/Cdc2 (C12720, BD Biosciences), anti-cyclin D3 (C28620, BD Biosciences), anti-Phospho-c-ABL (Tyr245, Cell Signaling Technology, Beverly, Mass., USA), anti-c-Abl (24-11, Santa Cruz Biotechnology), anti-c-KIT (C-14, Santa Cruz Biotechnology), anti-PDGFRα (C-20, Santa Cruz Biotechnology), anti-PDGFRβ (P-20, Santa Cruz Biotechnology), anti-ERK1/2 (Cell Signalling Technology), anti-p-ERK (Cell Signalling Technology) and anti-Actin (C-11, Santa Cruz Biotechnology). Detection was performed with an enhanced chemiluminescence kit (ECL, Amersham Life Sciences, Buckinghamshire, UK). Immunoblotting experiments were performed at least twice. […] Since p53 status is likely to have some effect on the level of c-Abl protein, the expression level of c-Abl in 1F3 cells was also measured. […] The cyclin-dependent kinase (CDK) inhibitors, p21^cip1 and p27^kip1, can block CDK activity in the S to G2 as well as in the G1 to S phase transition of the cell cycle. […] The activity of CDKs is dependent, in part, on the relative abundance of cyclin subunits and the presence of CDK inhibitors. Among the cyclins and CDKs, cyclin A, B, and CDC2 are involved in the progression from G2 to M phase.

In the case of CS(=O)(=O)O.Cc1ccc(NC(=O)c2ccc(CN3CCN(C)CC3)cc2)cc1Nc1nccc(-c2cccnc2)n1 [SALT I], the “growth suppression, dose dependence” value ([1]; FRO (undetectable p53), lower than 50 μM, 48 h) was “show growth suppression in SALT I dose dependent manner”, the “cell growth curve on a 5 day period” value ([1]; FRO, 10 μM of SALT I, compared to control cells) was “time-dependent reduction of cell growth” and the cell death ([1]; FRO, 50 μM of SALT I, 48 h) was “died”. The “cell number quantified with a cell count kit (Wako), mean” value (shortened to “cell number quantified”) ([1]; FRO, SALT I 1 μM) was 1.414, the “cell number quantified” value ([1]; FRO, SALT I 10 μM) was 1.192 and the “cell number quantified” value ([1]; FRO, SALT I 50 μM) was 0.228. For the same molecule, the “Expression of p2^cip1” value [2] was “markedly increased”, the “Expression of p27^kip1” value [2] was “increased” and the “levels of cyclin A, B1 and CDC2” value ([2]; ARO and FRO cell lines, 10 μM of SALT I, 24 hours) was “reduced”. The “level of cyclin D3” value ([2]; ARO cells, 10 μM of SALT I, 24 hours) was “reduced”, the “Expression of p2^cip1” value ([2]; ARO, KTC-1 and 1F3 cells, 10 μM of SALT I) was “did not change” and the “levels of cyclin A, B1, CDC2 and cyclin D3” value ([2]; KTC-1 and 1F3, 10 μM of SALT I, 24 hours) was “had no effect”.
